According to patent US11542240B2, “STK19 inhibitors for treatment of cancer” (TRUSTEES OF BOSTON UNIVERSITY, priority 2018, dated 2023):

Assays:
Test in all cases: biochemical
Type in all cases: binding
[1] = target: panel of 468 diverse kinases (Homo sapiens, UniProt P42680); conditions: TEC; 1000 nM; read-out: Percent Control
[2] = target: panel of 468 diverse kinases (Homo sapiens, UniProt P42685); conditions: FRK; 1000 nM; read-out: Percent Control
[3] = target: panel of 468 diverse kinases (Homo sapiens, UniProt P68400); conditions: CSNK2A1; 1000 nM; read-out: Percent Control
[4] = target: panel of 468 diverse kinases (Homo sapiens, UniProt P16591); conditions: FER; 1000 nM; read-out: Percent Control
[5] = target: panel of 468 diverse kinases (Homo sapiens, UniProt Q86UE8); conditions: TLK2; 1000 nM; read-out: Percent Control
[6] = target: panel of 468 diverse kinases (Homo sapiens, UniProt Q8TDR2); conditions: STK35; 1000 nM; read-out: Percent Control
[7] = target: panel of 468 diverse kinases (Homo sapiens, UniProt P43403); conditions: ZAP70; 1000 nM; read-out: Percent Control
[8] = target: panel of 468 diverse kinases (Homo sapiens, UniProt P36888, D835V); conditions: FLT3(D835V); 1000 nM; read-out: Percent Control
[9] = target: panel of 468 diverse kinases (Homo sapiens, UniProt P37173); conditions: TGFBR2; 1000 nM; read-out: Percent Control
panel of 468 diverse kinases (Homo sapiens, UniProt P37173), sequence (P37173 23-567 limits assumed): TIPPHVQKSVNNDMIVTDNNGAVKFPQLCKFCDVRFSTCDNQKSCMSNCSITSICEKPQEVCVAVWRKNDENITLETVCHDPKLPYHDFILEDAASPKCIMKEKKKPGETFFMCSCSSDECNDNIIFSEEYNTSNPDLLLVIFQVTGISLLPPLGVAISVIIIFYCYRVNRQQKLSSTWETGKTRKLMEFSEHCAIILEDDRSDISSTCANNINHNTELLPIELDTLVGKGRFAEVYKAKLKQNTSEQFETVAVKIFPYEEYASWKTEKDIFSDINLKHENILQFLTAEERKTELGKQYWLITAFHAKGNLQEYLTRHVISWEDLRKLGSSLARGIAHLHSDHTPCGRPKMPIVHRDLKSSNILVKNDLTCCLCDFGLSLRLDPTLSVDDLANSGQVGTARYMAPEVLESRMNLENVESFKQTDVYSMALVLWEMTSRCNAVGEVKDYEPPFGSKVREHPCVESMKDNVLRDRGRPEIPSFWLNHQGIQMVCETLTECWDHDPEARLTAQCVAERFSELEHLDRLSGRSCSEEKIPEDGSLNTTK

[10] = target: panel of 468 diverse kinases (Homo sapiens, UniProt O14757); conditions: CHEK1; 1000 nM; read-out: Percent Control
[11] = target: panel of 468 diverse kinases (Homo sapiens, UniProt Q99755); conditions: PIP5KIV; 1000 nM; read-out: Percent Control
[12] = target: panel of 468 diverse kinases (Homo sapiens, UniProt P22694); conditions: PKAC-beta; 1000 nM; read-out: Percent Control
[13] = target: panel of 468 diverse kinases (Homo sapiens, UniProt P0C264); conditions: SgK110; 1000 nM; read-out: Percent Control
[14] = target: panel of 468 diverse kinases (Homo sapiens, UniProt Q8NFD2); conditions: ANKK1; 1000 nM; read-out: Percent Control
[15] = target: panel of 468 diverse kinases (Homo sapiens, UniProt P37023); conditions: ACVRL1; 1000 nM; read-out: Percent Control
panel of 468 diverse kinases (Homo sapiens, UniProt P37023), sequence (P37023 22-503 limits assumed): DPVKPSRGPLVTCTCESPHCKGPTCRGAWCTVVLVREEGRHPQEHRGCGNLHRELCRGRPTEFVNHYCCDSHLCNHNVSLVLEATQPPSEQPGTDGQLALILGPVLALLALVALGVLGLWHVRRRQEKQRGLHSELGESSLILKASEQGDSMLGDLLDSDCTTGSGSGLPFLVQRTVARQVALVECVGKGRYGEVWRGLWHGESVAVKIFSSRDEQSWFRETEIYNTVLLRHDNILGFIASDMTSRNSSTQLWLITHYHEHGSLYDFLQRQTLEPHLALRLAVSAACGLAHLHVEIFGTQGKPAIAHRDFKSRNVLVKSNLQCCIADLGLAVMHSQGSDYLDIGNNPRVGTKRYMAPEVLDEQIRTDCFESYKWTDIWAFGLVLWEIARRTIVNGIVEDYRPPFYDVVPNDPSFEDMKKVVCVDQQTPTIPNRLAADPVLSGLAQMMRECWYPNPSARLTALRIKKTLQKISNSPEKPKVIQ

[16] = target: panel of 468 diverse kinases (Homo sapiens, UniProt P36897); conditions: TGFBR1; 1000 nM; read-out: Percent Control
panel of 468 diverse kinases (Homo sapiens, UniProt P36897), sequence (P36897 34-503 limits assumed): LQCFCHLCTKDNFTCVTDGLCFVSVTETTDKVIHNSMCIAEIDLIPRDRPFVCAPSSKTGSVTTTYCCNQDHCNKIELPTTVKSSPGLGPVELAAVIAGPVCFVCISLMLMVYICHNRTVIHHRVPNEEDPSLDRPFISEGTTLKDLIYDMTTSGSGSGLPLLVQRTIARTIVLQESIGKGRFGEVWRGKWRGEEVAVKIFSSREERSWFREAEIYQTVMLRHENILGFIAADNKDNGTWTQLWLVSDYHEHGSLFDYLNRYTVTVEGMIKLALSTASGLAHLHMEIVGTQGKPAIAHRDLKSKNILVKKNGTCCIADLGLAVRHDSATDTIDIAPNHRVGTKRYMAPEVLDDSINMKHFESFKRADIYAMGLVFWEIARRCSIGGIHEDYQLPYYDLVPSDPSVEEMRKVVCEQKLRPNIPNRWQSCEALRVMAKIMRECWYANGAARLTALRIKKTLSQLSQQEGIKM

[17] = target: panel of 468 diverse kinases (Homo sapiens, UniProt Q9BX84); conditions: TRPM6; 1000 nM; read-out: Percent Control
[18] = target: panel of 468 diverse kinases (Homo sapiens, UniProt Q8WTQ7); conditions: GRK7; 1000 nM; read-out: Percent Control
[19] = target: panel of 468 diverse kinases (Homo sapiens, UniProt Q99683); conditions: ASK1; 1000 nM; read-out: Percent Control
[20] = target: panel of 468 diverse kinases (Homo sapiens, UniProt Q05397); conditions: FAK; 1000 nM; read-out: Percent Control
panel of 468 diverse kinases (Homo sapiens, UniProt Q05397), sequence (Q05397 2-1052 limits assumed): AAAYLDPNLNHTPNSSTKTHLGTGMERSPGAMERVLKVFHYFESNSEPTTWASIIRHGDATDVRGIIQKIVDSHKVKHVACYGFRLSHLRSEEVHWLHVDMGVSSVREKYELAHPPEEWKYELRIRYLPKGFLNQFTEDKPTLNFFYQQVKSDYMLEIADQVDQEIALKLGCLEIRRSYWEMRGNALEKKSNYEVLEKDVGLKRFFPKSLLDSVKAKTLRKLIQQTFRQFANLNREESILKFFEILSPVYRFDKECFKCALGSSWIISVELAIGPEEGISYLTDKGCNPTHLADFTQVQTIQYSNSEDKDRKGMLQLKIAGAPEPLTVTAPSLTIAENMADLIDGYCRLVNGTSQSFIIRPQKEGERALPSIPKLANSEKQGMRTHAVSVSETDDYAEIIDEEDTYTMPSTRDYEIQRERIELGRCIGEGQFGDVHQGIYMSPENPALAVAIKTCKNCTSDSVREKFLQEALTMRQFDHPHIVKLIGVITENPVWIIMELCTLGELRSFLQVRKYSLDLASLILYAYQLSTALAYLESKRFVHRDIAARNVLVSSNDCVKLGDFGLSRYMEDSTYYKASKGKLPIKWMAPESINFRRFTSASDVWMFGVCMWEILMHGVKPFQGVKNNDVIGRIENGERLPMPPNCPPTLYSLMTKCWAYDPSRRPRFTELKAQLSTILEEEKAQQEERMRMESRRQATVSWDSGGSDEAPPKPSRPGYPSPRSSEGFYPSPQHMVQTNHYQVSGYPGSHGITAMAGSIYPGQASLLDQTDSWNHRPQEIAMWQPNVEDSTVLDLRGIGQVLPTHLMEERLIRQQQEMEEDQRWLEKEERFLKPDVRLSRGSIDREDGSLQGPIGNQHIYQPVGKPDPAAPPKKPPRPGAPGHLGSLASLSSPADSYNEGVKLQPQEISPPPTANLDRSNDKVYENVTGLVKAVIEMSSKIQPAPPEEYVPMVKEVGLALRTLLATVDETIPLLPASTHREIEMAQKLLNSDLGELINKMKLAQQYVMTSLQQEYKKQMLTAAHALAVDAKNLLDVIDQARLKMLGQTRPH

[21] = target: panel of 468 diverse kinases (Homo sapiens, UniProt P07949); conditions: RET; 1000 nM; read-out: Percent Control
[22] = target: panel of 468 diverse kinases (Homo sapiens, UniProt P50613); conditions: CDK7; 1000 nM; read-out: Percent Control
panel of 468 diverse kinases (Homo sapiens, UniProt P50613), sequence (P50613 2-346 limits assumed): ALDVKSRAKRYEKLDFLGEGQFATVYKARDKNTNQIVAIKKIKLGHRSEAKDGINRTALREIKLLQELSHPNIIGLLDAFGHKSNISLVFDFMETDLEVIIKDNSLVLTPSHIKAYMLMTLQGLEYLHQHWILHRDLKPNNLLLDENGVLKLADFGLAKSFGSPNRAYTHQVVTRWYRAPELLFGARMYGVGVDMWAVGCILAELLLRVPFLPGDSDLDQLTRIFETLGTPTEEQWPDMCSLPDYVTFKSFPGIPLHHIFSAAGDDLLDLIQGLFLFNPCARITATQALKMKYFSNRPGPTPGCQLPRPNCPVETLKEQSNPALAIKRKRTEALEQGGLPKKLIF

[23] = target: panel of 468 diverse kinases (Homo sapiens, UniProt P08631); conditions: HCK; 1000 nM; read-out: Percent Control
panel of 468 diverse kinases (Homo sapiens, UniProt P08631), sequence (P08631 2-526 limits assumed): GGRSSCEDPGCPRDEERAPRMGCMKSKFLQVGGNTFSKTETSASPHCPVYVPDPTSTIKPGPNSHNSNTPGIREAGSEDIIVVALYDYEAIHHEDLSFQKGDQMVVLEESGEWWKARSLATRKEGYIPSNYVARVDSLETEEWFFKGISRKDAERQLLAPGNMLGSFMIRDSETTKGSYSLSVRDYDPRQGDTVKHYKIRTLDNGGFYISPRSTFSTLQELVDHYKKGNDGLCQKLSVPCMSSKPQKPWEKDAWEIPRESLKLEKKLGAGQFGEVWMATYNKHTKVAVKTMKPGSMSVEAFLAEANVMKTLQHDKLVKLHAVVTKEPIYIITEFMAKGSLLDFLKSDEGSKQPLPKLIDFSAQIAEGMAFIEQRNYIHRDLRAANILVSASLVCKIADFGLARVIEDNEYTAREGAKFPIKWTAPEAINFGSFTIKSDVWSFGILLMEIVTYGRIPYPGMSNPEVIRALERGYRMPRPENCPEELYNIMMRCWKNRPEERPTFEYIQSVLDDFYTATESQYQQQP

[24] = target: panel of 468 diverse kinases (Homo sapiens, UniProt Q9UKE5); conditions: TNIK; 1000 nM; read-out: Percent Control
[25] = target: panel of 468 diverse kinases (Homo sapiens, UniProt P57058); conditions: HUNK; 1000 nM; read-out: Percent Control
[26] = target: panel of 468 diverse kinases (Homo sapiens, UniProt P00519, Y253F); conditions: ABL1(Y253F)-phosphorylated; 1000 nM; read-out: Percent Control
[27] = target: panel of 468 diverse kinases (Homo sapiens, UniProt Q9NQU5); conditions: PAK6; 1000 nM; read-out: Percent Control
[28] = target: panel of 468 diverse kinases (Homo sapiens, UniProt P00533, T790M); conditions: EGFR(T790M); 1000 nM; read-out: Percent Control
[29] = target: panel of 468 diverse kinases (Homo sapiens, UniProt P10721, D816V); conditions: KIT(D816V); 1000 nM; read-out: Percent Control
panel of 468 diverse kinases (Homo sapiens, UniProt P10721, D816V), sequence (P10721 26-976 D816V limits assumed): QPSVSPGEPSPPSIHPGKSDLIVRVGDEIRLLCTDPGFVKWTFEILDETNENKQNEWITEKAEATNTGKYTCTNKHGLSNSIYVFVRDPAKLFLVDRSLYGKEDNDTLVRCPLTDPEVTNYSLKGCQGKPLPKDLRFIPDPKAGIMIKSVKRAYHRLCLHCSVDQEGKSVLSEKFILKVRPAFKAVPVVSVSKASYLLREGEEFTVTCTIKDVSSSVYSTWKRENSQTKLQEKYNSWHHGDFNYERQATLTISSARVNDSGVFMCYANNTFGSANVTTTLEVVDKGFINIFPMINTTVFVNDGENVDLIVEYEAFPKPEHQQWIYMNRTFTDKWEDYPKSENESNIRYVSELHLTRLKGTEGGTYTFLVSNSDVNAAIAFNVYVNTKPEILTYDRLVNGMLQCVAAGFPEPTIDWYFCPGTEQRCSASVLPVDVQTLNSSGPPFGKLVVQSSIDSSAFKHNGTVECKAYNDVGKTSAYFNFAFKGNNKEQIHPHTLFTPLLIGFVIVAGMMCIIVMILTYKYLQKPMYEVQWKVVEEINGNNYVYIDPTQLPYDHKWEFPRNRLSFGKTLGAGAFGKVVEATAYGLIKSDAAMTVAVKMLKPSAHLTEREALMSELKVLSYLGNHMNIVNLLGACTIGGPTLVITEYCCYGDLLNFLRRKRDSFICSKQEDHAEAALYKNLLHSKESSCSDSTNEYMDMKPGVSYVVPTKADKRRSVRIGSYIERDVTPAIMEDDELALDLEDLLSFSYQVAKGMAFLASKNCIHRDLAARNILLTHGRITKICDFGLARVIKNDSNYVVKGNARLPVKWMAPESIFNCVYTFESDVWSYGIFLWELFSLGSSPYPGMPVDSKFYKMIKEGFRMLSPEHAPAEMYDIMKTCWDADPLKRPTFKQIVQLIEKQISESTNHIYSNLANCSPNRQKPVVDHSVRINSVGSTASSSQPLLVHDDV

[30] = target: panel of 468 diverse kinases (Homo sapiens, UniProt P51955); conditions: NEK2; 1000 nM; read-out: Percent Control
[31] = target: panel of 468 diverse kinases (Homo sapiens, UniProt P42336, Q546K); conditions: PIK3CA(Q546K); 1000 nM; read-out: Percent Control

COc1cc2nc(NC3CC3)nc(NC3CCN(C(C)C)CC3)c2cc1OC [Formula IV]
remaining activity at 1 µM [1]: 100%
remaining activity at 1 µM [2]: 100%
remaining activity at 1 µM [3]: 61%
remaining activity at 1 µM [4]: 90%
remaining activity at 1 µM [5]: 100%
remaining activity at 1 µM [6]: 94%
remaining activity at 1 µM [7]: 91%
remaining activity at 1 µM [8]: 44%
remaining activity at 1 µM [9]: 94%
remaining activity at 1 µM [10]: 93%
remaining activity at 1 µM [11]: 96%
remaining activity at 1 µM [12]: 96%
remaining activity at 1 µM [13]: 97%
remaining activity at 1 µM [14]: 50%
remaining activity at 1 µM [15]: 99%
remaining activity at 1 µM [16]: 82%
remaining activity at 1 µM [17]: 90%
remaining activity at 1 µM [18]: 90%
remaining activity at 1 µM [19]: 75%
remaining activity at 1 µM [20]: 88%
remaining activity at 1 µM [21]: 100%
remaining activity at 1 µM [22]: 69%
remaining activity at 1 µM [23]: 95%
remaining activity at 1 µM [24]: 98%
remaining activity at 1 µM [25]: 74%
remaining activity at 1 µM [26]: 100%
remaining activity at 1 µM [27]: 91%
remaining activity at 1 µM [28]: 44%
remaining activity at 1 µM [29]: 100%
remaining activity at 1 µM [30]: 100%
remaining activity at 1 µM [31]: 54%
